Marks after values point to notes of the source that are not given here.
Columns and labels:
[1] = tested on: BxPC3 tumors; assay: Protocol 93a: efficacy and biodistribution of CEA-PRIT; type: in vivo, SCID mice
Description: The bispecific antibodies were compared side-by-side in single- and double-cycle treatment regimens.
Groups A-G represent the treated mice that were followed up for assessment of efficacy, whereas groups H-L comprise mice that were sacrificed for biodistribution purposes 24 h after their last ^212Pb-DOTAM injection.
Solid xenografts were established by subcutaneous injection of cells in RPMI (BxPC3) or DMEM (LS174T) media mixed 1:1 with Corning® Matrigel® basement membrane matrix (growth factor reduced; cat No. 354230).
For protocol 93a, mice (age 7 weeks) were injected s.c. into the right flank with 5×10^6 BxPC3 cells (passage 33) in 100 μl RPMI/Matrigel. Twelve days after tumor cell injection, mice were sorted into experimental groups with an average tumor volume of 235 mm^3.
To minimize re-ingestion of radioactive urine/feces after treatment cycle 1, cages were changed 4 hours after ^212Pb-DOTAM administration, and then again at 24 h p.i. For cycle 2, mice were placed in cages with grilled floors for 4 hours after ^212Pb-DOTAM administration, before being transferred to new cages with standard bedding. All cages were then changed at 24 h p.i., as after cycle 1. The tumor development in the mice was followed through repeated calipering three times a week. If needed, additional calipering was performed in the gaps between scheduled measurements. The body weight of the animals was measured repeatedly in the same fashion. Mice whose tumor volume reached 3000 mm^3 were immediately euthanized. Other factors taken into account for euthanasia for ethical reasons were body weight loss, tumor status (e.g. ulceration) and general appearance of the animal. Wet food was provided to all animals starting from five days after the radioactive injection if mandated by an acute loss of body weight (collective or individual) due to radiation-induced toxicity, until all individuals had recovered sufficiently.
The following organs and tissues were harvested from groups A-G at the time of euthanasia: bladder, ovaries, liver, spleen, kidneys, femur (including bone marrow), colon, jejunum, stomach, and tumor. Unexpected or abnormal conditions were noted and photographed. Tissues were immediately put in 10% neutral buffered formalin (4° C.) and then transferred to PBS (4° C.) after 5 days. The formalin-fixed samples were then shipped to Roche Pharma Research and Early Development, Roche Innovation Center Basel, for further processing and analysis.
Mice in groups H, J, and L were sacrificed and necropsied 24 hours after their first and only injection of ^212Pb-DOTAM; groups I and K were sacrificed and necropsied 24 hours after their second ^212Pb-DOTAM injection. The following organs and tissues were harvested: blood, bladder, small intestine, colon, spleen, pancreas, kidneys, liver, lung, heart, femoral bone, muscle, tail, and tumor. Collected samples were weighed and measured for radioactivity, and the percent injected dose per gram of tissue (% ID/g) subsequently calculated, including corrections for decay and background.

[2] = tested on: s.c. BxPC3 tumors; assay: Protocol 146: radiation dosimetry (absorbed doses, MIRD); type: in vivo, SCID mice; settings: for Mean absorbed dose, RBE = 1 / Mean absorbed dose, RBE = 5: 20 μCi, pretargeted, tumor-bearing SCID
Description: Absorbed doses were calculated following the formalism outlined in Pamphlet No. 21 from the Medical Internal Radiation Dose (MIRD) Committee (Bolch W E, Eckerman K F, Sgouros G, and Thomas S R. J Nucl Med 2009; 50:477-484). Formally, the absorbed dose D(rT) in a target tissue or region rT is calculated as the time-integral of the activity A(rs,t) multiplied by the absorbed dose rate per unit activity S(rT←rs) summed over all source regions rs. Given that the vast majority of energy released by the ^212Pb decay chain comes from alpha radiation and furthermore by the much higher biological effectiveness of alpha radiation (as characterized by the relative biological effectiveness, RBE) two approximations were made: • 1. the energy is absorbed locally due to the short range of the alpha particles, which means that only the term s(rT←rT) is Considered, and • 2. the contribution from beta and gamma radiation is neglected.
With Δα being the energy released by alpha decays, or rather the sum of the mean energies released by alpha decays in the decay chain of ^212Pb, here expressed in units […], the absorbed dose in a target tissue or region rT is calculated by the formula: […]
The calculations are based on the composite (average) decay-corrected radioactive concentration at time t, expressed as [% ID^t/g]t. In a first step, these are transformed into radioactive concentrations as μCi per kg tissue weight for the target tissue rT:
AQ[μCi] is the injected activity and λ is the exponential decay rate for ^212Pb, 0.0651 h^−1 (corresponding to the 10.6-hour half-life).
In a second step, the radioactive concentration was integrated over time for each tissue. This was achieved using the “Linear Log Trapezoidal calculation method” in the pharmacokinetic software Phoenix WinNonlin 6.4 (Certara USA, Inc., 100 Overlook Center, Suite 101, Princeton, N.J. 08540 USA). The model type “Plasma” was used with uniform weighting.
In the final step, absorbed doses were calculated by multiplying the time integrals of the radioactive concentration by the energy release Δα=170·10^−6J/(μCi·h).
The mean absorbed doses in Gy calculated for protocol 146 are shown in Table 24, both as absolute values (RBE=1) and corrected for the higher cytotoxicity of alpha emitters (RBE=5).

[3] = labelled group 30 + 30 μCi 212Pb-DOTAM, multiple test level = 0.00238

Question: Which “tumor growth inhibition (TGI)” value ([1]; day 47, 30+30 μCi, compared with PBS) does the source give for `NC(=O)CN1CCN(CC(N)=O)CCN(CC(N)=O)CCN(CC(N)=O)CC1.[212Pb+2]` [^212Pb-DOTAM] here?
Answer: 15.8%

Question: What about the “Pairwise Log-Rank Test, survival, p vs PRIT-0175 30 + 30 μCi” value [1, 3] of the same molecule?
Answer: 0.0032*

Question: And the “Pairwise Log-Rank Test, survival, p vs PRIT-0213 30 + 10 μCi” value [1, 3]?
Answer: 0.0001*

Question: And the “Pairwise Log-Rank Test, survival, p vs PRIT-0213 30 + 30 μCi” value [1, 3]?
Answer: 0.8474

Question: And the “Pairwise Log-Rank Test, survival, p vs PRIT-0214 30 + 10 μCi” value [1, 3]?
Answer: <.0001*

Question: And the “Pairwise Log-Rank Test, survival, p vs PRIT-0214 30 + 30 μCi” value [1, 3]?
Answer: 0.0685

Question: And the “Pairwise Log-Rank Test, survival, p vs Vehicle (PBS)” value [1, 3]?
Answer: 0.5271

Question: And the “Pairwise Wilcoxon Test, survival, p vs PRIT-0175 30 + 30 μCi” value [1, 3]?
Answer: 0.0042*

Question: And the “Pairwise Wilcoxon Test, survival, p vs PRIT-0213 30 + 10 μCi” value [1, 3]?
Answer: 0.0004*

Question: What about the “Pairwise Wilcoxon Test, survival, p vs PRIT-0213 30 + 30 μCi” value [1, 3] of the same molecule?
Answer: 0.8704

Question: What about the “Pairwise Wilcoxon Test, survival, p vs PRIT-0214 30 + 10 μCi” value [1, 3] of the same molecule?
Answer: 0.0002*

Question: And the “Pairwise Wilcoxon Test, survival, p vs PRIT-0214 30 + 30 μCi” value [1, 3]?
Answer: 0.0827

Question: And the “Pairwise Wilcoxon Test, survival, p vs Vehicle (PBS)” value [1, 3]?
Answer: 0.1439

Question: And the “absorbed dose in most normal tissues, except bladder” value ([2]; 20 μCi ^212Pb-DOTAM, RBE=1)?
Answer: below 2 Gy

Question: What about the “Mean absorbed dose, RBE = 1” value ([2]; Abdominal fat) of the same molecule?
Answer: 1.25 Gy

Question: What about the “Mean absorbed dose, RBE = 5” value ([2]; Abdominal fat) of the same molecule?
Answer: 6.25 Gy

Question: What about the “Mean absorbed dose, RBE = 1” value ([2]; Bladder) of the same molecule?
Answer: 6.53 Gy

Question: What about the “Mean absorbed dose, RBE = 5” value ([2]; Bladder) of the same molecule?
Answer: 32.64 Gy

Question: And the “Mean absorbed dose, RBE = 1” value ([2]; Blood)?
Answer: 0.72 Gy

Question: And the “Mean absorbed dose, RBE = 5” value ([2]; Blood)?
Answer: 3.60 Gy

Question: What about the “Mean absorbed dose, RBE = 1” value ([2]; Brain) of the same molecule?
Answer: 0.04 Gy

Question: What about the “Mean absorbed dose, RBE = 5” value ([2]; Brain) of the same molecule?
Answer: 0.19 Gy

Question: What about the “Mean absorbed dose, RBE = 1” value ([2]; Colon) of the same molecule?
Answer: 0.43 Gy

Question: What about the “Mean absorbed dose, RBE = 5” value ([2]; Colon) of the same molecule?
Answer: 2.17 Gy

Question: What about the “Mean absorbed dose, RBE = 1” value ([2]; Femoral bone) of the same molecule?
Answer: 0.27 Gy

Question: And the “Mean absorbed dose, RBE = 5” value ([2]; Femoral bone)?
Answer: 1.33 Gy

Question: What about the “Mean absorbed dose, RBE = 1” value ([2]; Heart) of the same molecule?
Answer: 0.33 Gy

Question: What about the “Mean absorbed dose, RBE = 5” value ([2]; Heart) of the same molecule?
Answer: 1.63 Gy

Question: What about the “Mean absorbed dose, RBE = 1” value ([2]; Kidneys) of the same molecule?
Answer: 1.43 Gy

Question: What about the “Mean absorbed dose, RBE = 5” value ([2]; Kidneys) of the same molecule?
Answer: 7.14 Gy

Question: What about the “Mean absorbed dose, RBE = 1” value ([2]; Liver) of the same molecule?
Answer: 0.22 Gy

Question: What about the “Mean absorbed dose, RBE = 5” value ([2]; Liver) of the same molecule?
Answer: 1.09 Gy

Question: What about the “Mean absorbed dose, RBE = 1” value ([2]; Lung) of the same molecule?
Answer: 1.34 Gy

Question: And the “Mean absorbed dose, RBE = 5” value ([2]; Lung)?
Answer: 6.69 Gy

Question: And the “Mean absorbed dose, RBE = 1” value ([2]; Muscle)?
Answer: 0.29 Gy

Question: And the “Mean absorbed dose, RBE = 5” value ([2]; Muscle)?
Answer: 1.47 Gy

Question: What about the “Mean absorbed dose, RBE = 1” value ([2]; Pancreas) of the same molecule?
Answer: 0.36 Gy

Question: What about the “Mean absorbed dose, RBE = 5” value ([2]; Pancreas) of the same molecule?
Answer: 1.80 Gy

Question: And the “Mean absorbed dose, RBE = 1” value ([2]; Serum)?
Answer: 1.64 Gy

Question: What about the “Mean absorbed dose, RBE = 5” value ([2]; Serum) of the same molecule?
Answer: 8.20 Gy

Question: What about the “Mean absorbed dose, RBE = 1” value ([2]; Skin) of the same molecule?
Answer: 0.47 Gy

Question: What about the “Mean absorbed dose, RBE = 5” value ([2]; Skin) of the same molecule?
Answer: 2.33 Gy

Question: What about the “Mean absorbed dose, RBE = 1” value ([2]; Small intestine) of the same molecule?
Answer: 0.22 Gy

Question: What about the “Mean absorbed dose, RBE = 5” value ([2]; Small intestine) of the same molecule?
Answer: 1.08 Gy

Question: And the “Mean absorbed dose, RBE = 1” value ([2]; Spleen)?
Answer: 0.27 Gy

Question: What about the “Mean absorbed dose, RBE = 5” value ([2]; Spleen) of the same molecule?
Answer: 1.36 Gy

Question: What about the “Mean absorbed dose, RBE = 1” value ([2]; Stomach) of the same molecule?
Answer: 0.24 Gy

Question: And the “Mean absorbed dose, RBE = 5” value ([2]; Stomach)?
Answer: 1.20 Gy

Question: And the “Mean absorbed dose, RBE = 1” value ([2]; Tail)?
Answer: 0.54 Gy

Question: What about the “Mean absorbed dose, RBE = 5” value ([2]; Tail) of the same molecule?
Answer: 2.69 Gy

Question: What about the “Mean absorbed dose, RBE = 1” value ([2]; Tumor (BxPC3)) of the same molecule?
Answer: 19.91 Gy

Question: What about the “Mean absorbed dose, RBE = 5” value ([2]; Tumor (BxPC3)) of the same molecule?
Answer: 99.55 Gy

Question: And the “Mean absorbed dose, RBE = 1” value ([2]; Uterus)?
Answer: 0.61 Gy

Question: What about the “Mean absorbed dose, RBE = 5” value ([2]; Uterus) of the same molecule?
Answer: 3.04 Gy

From patent US20220031871A1, “ANTIBODIES FOR CHELATED RADIONUCLIDES AND CLEARING AGENTS” (Hoffmann-La Roche Inc., priority 2018, published 2022)
